Test results: patent publication US12077503B2, “Substituted cyclic amides and their use as herbicides” (FMC CORPORATION, priority 2015, dated 2024)

Experiments:
Type in all cases: in vivo
corn (Zea mays) [1] = experiment: Test G Pre-Emergence Protocol; conditions: Zea mays, pre-emergence, 312 h, evaluated after 13 days; for plant injury at 15.625 g/ha: 15.625 g ai/ha; for plant injury at 15.625 g/ha / plant injury at 250 g/ha: read-out: Corn damage rating (100=total damage to plant; 0=no damage to plant); for plant injury at 62.5 g/ha: 62.5 g ai/ha, 100=total damage to plant, 0=no damage to plant, read-out: Corn damage rating; for plant injury at 250 g/ha: 250 g ai/ha
How it was run: (§1)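 Seeds were sown in standard soil and kept one day in a glasshouse (24/16° C day/night, 14 h light, 65% humidity), then sprayed with compound in acetone/water (50:50) containing 0.5% Tween 20 at 15.625, 62.5 or 250 g/ha. Damage was scored after 13 days (0 = none, 100 = total).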

[2] = tested on: ivy-leaved morning glory (Ipomoea hederacea); experiment: Test G Pre-Emergence Protocol; conditions: Ipomoea, pre-emergence, 312 h, evaluated after 13 days; for pest or weed control at 15.625 g/ha: 15.625 g ai/ha; for pest or weed control at 15.625 g/ha / pest or weed control at 250 g/ha: read-out: Morningglory, Ivy-leaved damage rating (100=total damage to plant; 0=no damage to plant); for pest or weed control at 62.5 g/ha: 62.5 g ai/ha, 100=total damage to plant, 0=no damage to plant, read-out: Morningglory, Ivy-leaved damage rating; for pest or weed control at 250 g/ha: 250 g ai/ha
How it was run: as §1

[3] = tested on: giant foxtail (Setaria faberi); experiment: Test G Pre-Emergence Protocol; conditions: Setaria faberi, pre-emergence, 312 h, evaluated after 13 days; for pest or weed control at 15.625 g/ha: 15.625 g ai/ha; for pest or weed control at 15.625 g/ha / pest or weed control at 250 g/ha: read-out: Foxtail, Giant damage rating (100=total damage to plant; 0=no damage to plant); for pest or weed control at 62.5 g/ha: 62.5 g ai/ha, 100=total damage to plant, 0=no damage to plant, read-out: Foxtail, Giant damage rating; for pest or weed control at 250 g/ha: 250 g ai/ha
How it was run: as §1

[4] = tested on: redroot pigweed (Amaranthus retroflexus); experiment: Test G Pre-Emergence Protocol; conditions: Amaranthus retroflexus, pre-emergence, 312 h, evaluated after 13 days; for pest or weed control at 15.625 g/ha: 15.625 g ai/ha; for pest or weed control at 15.625 g/ha / pest or weed control at 250 g/ha: read-out: Pigweed, Redroot damage rating (100=total damage to plant; 0=no damage to plant); for pest or weed control at 62.5 g/ha: 62.5 g ai/ha, 100=total damage to plant, 0=no damage to plant, read-out: Pigweed, Redroot damage rating; for pest or weed control at 250 g/ha: 250 g ai/ha
How it was run: as §1

[5] = tested on: barnyardgrass (Echinochloa crus-galli); experiment: Test G Pre-Emergence Protocol; conditions: Echinochloa crus-galli, pre-emergence, 312 h, evaluated after 13 days; for pest or weed control at 15.625 g/ha: 15.625 g ai/ha; for pest or weed control at 15.625 g/ha / pest or weed control at 250 g/ha: read-out: Barnyardgrass damage rating (100=total damage to plant; 0=no damage to plant); for pest or weed control at 62.5 g/ha: 62.5 g ai/ha, 100=total damage to plant, 0=no damage to plant, read-out: Barnyardgrass damage rating; for pest or weed control at 250 g/ha: 250 g ai/ha
How it was run: as §1

[6] = tested on: velvetleaf (Abutilon theophrasti); experiment: Test G Pre-Emergence Protocol; conditions: Abutilon theophrasti, pre-emergence, 312 h, evaluated after 13 days; for pest or weed control at 15.625 g/ha: 15.625 g ai/ha; for pest or weed control at 15.625 g/ha / pest or weed control at 250 g/ha: read-out: Velvetleaf damage rating (100=total damage to plant; 0=no damage to plant); for pest or weed control at 62.5 g/ha: 62.5 g ai/ha, 100=total damage to plant, 0=no damage to plant, read-out: Velvetleaf damage rating; for pest or weed control at 250 g/ha: 250 g ai/ha
How it was run: as §1

corn (Zea mays) [7] = experiment: Test G Post-Emergence Protocol; conditions: Zea mays, post-emergence, 312 h, read-out: Corn damage rating; for plant injury at 15.625 g/ha: 15.625 g ai/ha, evaluated after 13 days (100=total damage to plant; 0=no damage to plant); for plant injury at 62.5 g/ha: 62.5 g ai/ha; for plant injury at 62.5 g/ha / plant injury at 250 g/ha: evaluated after 13 days, 100=total damage to plant, 0=no damage to plant; for plant injury at 250 g/ha: 250 g ai/ha
How it was run: (§2)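 Eight days post-sowing, plants received a spray of test compound (acetone/water 50:50, 0.5% Tween 20) at 15.625, 62.5 or 250 g/ha. Glasshouse regime thereafter: 24/16 °C, 14 h light, 65% humidity. Assessment after 13 days on a 0–100 damage scale.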

[8] = tested on: ivy-leaved morning glory (Ipomoea hederacea); experiment: Test G Post-Emergence Protocol; conditions: Ipomoea, post-emergence, 312 h, read-out: Morningglory, Ivy-leaved damage rating; for pest or weed control at 15.625 g/ha: 15.625 g ai/ha, evaluated after 13 days (100=total damage to plant; 0=no damage to plant); for pest or weed control at 62.5 g/ha: 62.5 g ai/ha; for pest or weed control at 62.5 g/ha / pest or weed control at 250 g/ha: evaluated after 13 days, 100=total damage to plant, 0=no damage to plant; for pest or weed control at 250 g/ha: 250 g ai/ha
How it was run: as §2

[9] = tested on: giant foxtail (Setaria faberi); experiment: Test G Post-Emergence Protocol; conditions: Setaria faberi, post-emergence, 312 h, read-out: Foxtail, Giant damage rating; for pest or weed control at 15.625 g/ha: 15.625 g ai/ha, evaluated after 13 days (100=total damage to plant; 0=no damage to plant); for pest or weed control at 62.5 g/ha: 62.5 g ai/ha; for pest or weed control at 62.5 g/ha / pest or weed control at 250 g/ha: evaluated after 13 days, 100=total damage to plant, 0=no damage to plant; for pest or weed control at 250 g/ha: 250 g ai/ha
How it was run: as §2

[10] = tested on: redroot pigweed (Amaranthus retroflexus); experiment: Test G Post-Emergence Protocol; conditions: Amaranthus retroflexus, post-emergence, 312 h, read-out: Pigweed, Redroot damage rating; for pest or weed control at 15.625 g/ha: 15.625 g ai/ha, evaluated after 13 days (100=total damage to plant; 0=no damage to plant); for pest or weed control at 62.5 g/ha: 62.5 g ai/ha; for pest or weed control at 62.5 g/ha / pest or weed control at 250 g/ha: evaluated after 13 days, 100=total damage to plant, 0=no damage to plant; for pest or weed control at 250 g/ha: 250 g ai/ha
How it was run: as §2

[11] = tested on: barnyardgrass (Echinochloa crus-galli); experiment: Test G Post-Emergence Protocol; conditions: Echinochloa crus-galli, post-emergence, 312 h, read-out: Barnyardgrass damage rating; for pest or weed control at 15.625 g/ha: 15.625 g ai/ha, evaluated after 13 days (100=total damage to plant; 0=no damage to plant); for pest or weed control at 62.5 g/ha: 62.5 g ai/ha; for pest or weed control at 62.5 g/ha / pest or weed control at 250 g/ha: evaluated after 13 days, 100=total damage to plant, 0=no damage to plant; for pest or weed control at 250 g/ha: 250 g ai/ha
How it was run: as §2

[12] = tested on: velvetleaf (Abutilon theophrasti); experiment: Test G Post-Emergence Protocol; conditions: Abutilon theophrasti, post-emergence, 312 h, read-out: Velvetleaf damage rating; for pest or weed control at 15.625 g/ha: 15.625 g ai/ha, evaluated after 13 days (100=total damage to plant; 0=no damage to plant); for pest or weed control at 62.5 g/ha: 62.5 g ai/ha; for pest or weed control at 62.5 g/ha / pest or weed control at 250 g/ha: evaluated after 13 days, 100=total damage to plant, 0=no damage to plant; for pest or weed control at 250 g/ha: 250 g ai/ha
How it was run: as §2

For `CN1CCC(NC(=O)[C@H]2C(=O)N(C)C[C@@H]2c2ccc(C(F)(F)F)cc2)C1=O` (mixture of isomers) [Compound 1673], the plant injury at 15.625 g/ha (corn (Zea mays) [1]) was 0%, the plant injury at 62.5 g/ha (corn (Zea mays) [1]) was 0% and the plant injury at 250 g/ha (corn (Zea mays) [1]) was 0%. The pest or weed control at 15.625 g/ha [2] was 0%, the pest or weed control at 62.5 g/ha [2] was 0% and the pest or weed control at 250 g/ha [2] was 0%. The pest or weed control at 15.625 g/ha [3] was 0%, the pest or weed control at 62.5 g/ha [3] was 0% and the pest or weed control at 250 g/ha [3] was 0%. It also gave a pest or weed control at 15.625 g/ha [4] of 0%, a pest or weed control at 62.5 g/ha [4] of 0% and a pest or weed control at 250 g/ha [4] of 0%. The pest or weed control at 15.625 g/ha [5] was 0%, the pest or weed control at 62.5 g/ha [5] was 0% and the pest or weed control at 250 g/ha [5] was 0%. The pest or weed control at 15.625 g/ha [6] was 0%, the pest or weed control at 62.5 g/ha [6] was 0% and the pest or weed control at 250 g/ha [6] was 0%. For the same compound, the plant injury at 15.625 g/ha (corn (Zea mays) [7]) was 0%, the plant injury at 62.5 g/ha (corn (Zea mays) [7]) was 0% and the plant injury at 250 g/ha (corn (Zea mays) [7]) was 0%. For the same compound, the pest or weed control at 15.625 g/ha [8] was 0%, the pest or weed control at 62.5 g/ha [8] was 0% and the pest or weed control at 250 g/ha [8] was 0%. For the same compound, the pest or weed control at 15.625 g/ha [9] was 0%, the pest or weed control at 62.5 g/ha [9] was 0% and the pest or weed control at 250 g/ha [9] was 10%. The pest or weed control at 15.625 g/ha [10] was 0%, the pest or weed control at 62.5 g/ha [10] was 0% and the pest or weed control at 250 g/ha [10] was 0%. For the same compound, the pest or weed control at 15.625 g/ha [11] was 0%, the pest or weed control at 62.5 g/ha [11] was 0% and the pest or weed control at 250 g/ha [11] was 0%. The pest or weed control at 15.625 g/ha [12] was 0%, the pest or weed control at 62.5 g/ha [12] was 0% and the pest or weed control at 250 g/ha [12] was 0%.

`CN1C[C@H](c2ccc(C(F)(F)F)cc2)[C@@H](C(=O)Nc2cnccc2[S+](C)[O-])C1=O` (mixture of isomers) [Compound 1751] gave a plant injury at 15.625 g/ha (corn (Zea mays) [1]) of 0%, a plant injury at 62.5 g/ha (corn (Zea mays) [1]) of 0% and a plant injury at 250 g/ha (corn (Zea mays) [1]) of 0%. For the same compound, the pest or weed control at 15.625 g/ha [2] was 0%, the pest or weed control at 62.5 g/ha [2] was 0% and the pest or weed control at 250 g/ha [2] was 0%. The pest or weed control at 15.625 g/ha [3] was 0%, the pest or weed control at 62.5 g/ha [3] was 0% and the pest or weed control at 250 g/ha [3] was 10%. For the same compound, the pest or weed control at 15.625 g/ha [4] was 0%, the pest or weed control at 62.5 g/ha [4] was 0% and the pest or weed control at 250 g/ha [4] was 10%. For the same compound, the pest or weed control at 15.625 g/ha [5] was 0%, the pest or weed control at 62.5 g/ha [5] was 0% and the pest or weed control at 250 g/ha [5] was 0%. It also gave a pest or weed control at 15.625 g/ha [6] of 0%, a pest or weed control at 62.5 g/ha [6] of 0% and a pest or weed control at 250 g/ha [6] of 0%. The plant injury at 15.625 g/ha (corn (Zea mays) [7]) was 0%, the plant injury at 62.5 g/ha (corn (Zea mays) [7]) was 0% and the plant injury at 250 g/ha (corn (Zea mays) [7]) was 0%. It also gave a pest or weed control at 15.625 g/ha [8] of 0%, a pest or weed control at 62.5 g/ha [8] of 0% and a pest or weed control at 250 g/ha [8] of 0%. The pest or weed control at 15.625 g/ha [9] was 0%, the pest or weed control at 62.5 g/ha [9] was 0% and the pest or weed control at 250 g/ha [9] was 10%. It also gave a pest or weed control at 15.625 g/ha [10] of 0%, a pest or weed control at 62.5 g/ha [10] of 0% and a pest or weed control at 250 g/ha [10] of 10%. The pest or weed control at 15.625 g/ha [11] was 0%, the pest or weed control at 62.5 g/ha [11] was 0% and the pest or weed control at 250 g/ha [11] was 0%. It also gave a pest or weed control at 15.625 g/ha [12] of 0%, a pest or weed control at 62.5 g/ha [12] of 0% and a pest or weed control at 250 g/ha [12] of 10%.
